Measurements taken from publication PMC5298035 (Clinical Pharmacology in Drug Development, 2016).
Where a name gives a salt, the structure may show the parent alone. Read-outs that look alike come from different tables or passages of the source.

Experiments:
[1] = Safety; assay type: in vivo, human; settings: rifampin study, by treatment period
[2] = assay type: in vivo, human
[3] = Safety; assay type: in vivo, human; settings: midazolam study, by treatment period
[4] = tested on: CYP3A4; settings: cited from earlier work
[5] = assay type: in vivo, human; remark: listed apart in the source
[6] = Safety; assay type: in vivo, human; settings: ketoconazole study, by treatment period
[7] = tested on: CYP3A4; settings: cited from earlier work; remark: listed apart in the source
[8] = molecular target: T1, CYP3A4 (Homo sapiens, UniProt P08684); settings: cultured human hepatocytes; ref data on file; cited from earlier work
[9] = tested on: CYP2C19; settings: cultured human hepatocytes; ref data on file; cited from earlier work
[10] = Safety; assay type: in vivo, human; settings: ethinyl estradiol/norethindrone study, by treatment period
[11] = molecular target: T1, CYP3A4; settings: CYP3A4-expressing human liver microsomes; ref data on file; cited from earlier work
[12] = molecular target: T1, CYP3A4; assay: Clinical CYP3A4 drug-drug interaction classification; assay type: in vivo
[13] = tested on: CYP1A2; settings: pooled human liver microsomes; ref data on file; cited from earlier work
[14] = cited from earlier work
[15] = tested on: CYP2B6; settings: in vitro; ref unpublished data; cited from earlier work
[16] = Phase 1 ethinyl estradiol/norethindrone interaction study: plasma PK; assay type: in vivo, human; settings: for AUCτ: n = 23, arithmetic mean (SD); for Geometric least-squares mean ratio, AUC0-∞ / Geometric least-squares mean ratio, AUClast / Geometric least-squares mean ratio, Cmax: (90% CI)
[17] = tested on: CYP2A6; settings: pooled human liver microsomes; ref data on file; cited from earlier work
[18] = tested on: CYP2B6; settings: cultured human hepatocytes; ref data on file; cited from earlier work
[19] = tested on: CYP2C19; settings: pooled human liver microsomes; ref data on file; cited from earlier work
[20] = tested on: CYP2D6; settings: pooled human liver microsomes; ref data on file; cited from earlier work
[21] = tested on: CYP2C8; settings: cultured human hepatocytes; ref data on file; cited from earlier work
[22] = tested on: CYP2C9; settings: pooled human liver microsomes; ref data on file; cited from earlier work
[23] = tested on: CYP2B6; settings: CYP2B6-expressing human liver microsomes; ref data on file; cited from earlier work
[24] = active drug released from prodrug; cited from earlier work
[25] = tested on: CYP2C9; settings: cultured human hepatocytes; ref data on file; cited from earlier work
[26] = tested on: CYP4A11; settings: pooled human liver microsomes; ref data on file; cited from earlier work
[27] = tested on: CYP2C8; settings: CYP2C8-expressing human liver microsomes; ref data on file; cited from earlier work
[28] = coadministration with lopinavir/ritonavir; cited from earlier work
[29] = tested on: P-glycoprotein; settings: in vitro; ref unpublished data; cited from earlier work
[30] = tested on: CYP3A5; settings: CYP3A5-expressing human liver microsomes; ref data on file; cited from earlier work
[31] = active drug released from prodrug; cited from earlier work; remark: listed apart in the source
[32] = tested on: CYP2C9; settings: in vitro; ref unpublished data; cited from earlier work
[33] = tested on: CYP1A2; settings: cultured human hepatocytes; ref data on file; cited from earlier work
[34] = tested on: CYP3A7; settings: CYP3A7-expressing human liver microsomes; ref data on file; cited from earlier work
[35] = tested on: CYP2E1; settings: pooled human liver microsomes; ref data on file; cited from earlier work
[36] = Phase 1 rifampin interaction study: plasma PK of isavuconazole; assay type: in vivo, human
[37] = tested on: esterases; settings: in the gut and blood; cited from earlier work
[38] = midazolam + isavuconazole vs midazolam alone, (90% CI)
[39] = midazolam, presence vs absence of isavuconazole
[40] = both, human, plasma, po, 200 mg
[41] = isavuconazole + ketoconazole vs isavuconazole alone, (90% CI)
[42] = presence vs absence of ketoconazole 200 mg BID
[43] = coadministration with rifampin 600 mg QD vs isavuconazole alone
[44] = isavuconazole + rifampin vs isavuconazole alone, (90% CI)
[45] = ethinyl estradiol, presence vs absence of isavuconazole
[46] = ethinyl estradiol: + isavuconazole vs alone
[47] = norethindrone, coadministration with isavuconazole vs alone
[48] = norethindrone: + isavuconazole vs alone

T1 sequence (P08684 whole entry): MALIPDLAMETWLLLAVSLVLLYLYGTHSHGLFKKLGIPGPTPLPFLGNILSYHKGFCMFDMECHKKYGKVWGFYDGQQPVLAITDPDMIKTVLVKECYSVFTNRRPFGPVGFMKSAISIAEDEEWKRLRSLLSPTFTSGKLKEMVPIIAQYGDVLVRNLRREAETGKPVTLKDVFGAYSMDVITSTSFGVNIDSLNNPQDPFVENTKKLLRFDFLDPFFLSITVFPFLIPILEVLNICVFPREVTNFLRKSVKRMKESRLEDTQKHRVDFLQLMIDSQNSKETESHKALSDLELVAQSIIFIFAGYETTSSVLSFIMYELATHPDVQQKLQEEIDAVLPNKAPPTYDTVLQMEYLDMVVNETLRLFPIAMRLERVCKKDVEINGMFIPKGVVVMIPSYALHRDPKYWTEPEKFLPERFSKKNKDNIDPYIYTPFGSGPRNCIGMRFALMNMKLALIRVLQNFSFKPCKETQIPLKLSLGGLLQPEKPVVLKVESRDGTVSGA

## CO[C@H]1/C=C/O[C@@]2(C)Oc3c(C)c(O)c4c(O)c(c(/C=N/N5CCN(C)CC5)c(O)c4c3C2=O)NC(=O)/C(C)=C\C=C\[C@H](C)[C@H](O)[C@@H](C)[C@@H](O)[C@@H](C)[C@H](OC(C)=O)[C@@H]1C [Rifampin, rifampin, reference compound]
[1]
  subjects who experienced TEAEs: 19 n
  subjects with drug-related TEAEs: 7 n

## Cc1ncc2n1-c1ccc(Cl)cc1C(c1ccccc1F)=NC2 [Midazolam, midazolam]
[2]; both, human, plasma, po, 3 mg
  AUC(0-inf): 46 ng·h/mL
  AUC(0-t): 44.5 ng·h/mL
  Cmax: 10.7 ng/mL
  Tmax: 1 h
  half-life: 5.4 h
[2]; midazolam 3 mg single oral dose alone, day 1, n = 23, arithmetic mean (SD)
  CL/F: 72.1 (24.6) L/h
[2]; [38]
  Geometric least-squares mean ratio, AUC0-∞: 203 (173, 238) %
  Geometric least-squares mean ratio, AUClast: 206 (175, 243) %
  Geometric least-squares mean ratio, Cmax: 172 (144, 205) %
[2]; [39]
  increase in mean AUC0-∞: 103%
  increase in mean AUClast: 106%
  increase in mean Cmax: 72%
[3]
  subjects who experienced TEAEs: 9 n
  subjects with drug-related TEAEs: 6 n

## CC[C@@H]([C@H](C)O)n1ncn(-c2ccc(N3CCN(c4ccc(OC[C@@H]5CO[C@@](Cn6cncn6)(c6ccc(F)cc6F)C5)cc4)CC3)cc2)c1=O [posaconazole]
[4]
  increase in exposure of midazolam on coadministration: up to 5 fold

## CC(=O)N1CCN(c2ccc(OCC3COC(Cn4ccnc4)(c4ccc(Cl)cc4Cl)O3)cc2)CC1 (centres unmarked) [Ketoconazole, ketoconazole, reference compound]
[5]; ketoconazole + isavuconazole vs ketoconazole alone, 90% CI 105, 134
  Geometric least-squares mean ratio, Cmax: 118%
[5]; ketoconazole + isavuconazole vs ketoconazole alone, 90% CI 112, 144
  Geometric least-squares mean ratio, AUCτ: 127%
[6]
  subjects reporting TEAEs: no subjects

## C[C@@H](c1ncncc1F)[C@](O)(Cn1cncn1)c1ccc(F)cc1F [voriconazole]
[7]
  increases in ethinyl estradiol and norethindrone on coadministration: less than 2 fold
[4]
  increase in midazolam AUC on coadministration: approximately 10 fold

## C[C@@H](c1nc(-c2ccc(C#N)cc2)cs1)[C@](O)(Cn1cncn1)c1cc(F)ccc1F [Isavuconazole, isavuconazole]
[8]
  increase in CYP3A4 mRNA: ≤ 6.4 fold
  increase in testosterone hydroxylation activity (CYP3A4): up to 3.4 fold
[9]
  increase in CYP2C19 mRNA levels: No isavuconazole‐induced increases
  increase in S-(+)-mephenytoin 4'-hydroxylation activity (CYP2C19): No isavuconazole‐induced increases
[10]
  subjects who experienced TEAEs: 6 n
  subjects with drug-related TEAEs: 3 subjects
[5]; [40]
  AUC(0-inf): 84800 ng·h/mL
  AUC(0-t): 64900 ng·h/mL
  Cmax: 2200 ng/mL
  Tmax: 2 h
  half-life: 117 h
[5]; isavuconazole 200 mg single oral dose alone, n = 12, arithmetic mean (SD)
  CL/F: 2.5 (0.6) L/h
[5]; [41]
  Geometric least-squares mean ratio, AUC0-∞: 522 (409, 666) %
  Geometric least-squares mean ratio, AUClast: 373 (319, 435) %
  Geometric least-squares mean ratio, Cmax: 109 (93, 127) %
[5]; [42]
  increase in mean AUC0-∞: 422%
  increase in mean AUClast: 273%
  increase in mean Cmax: 9%
[11]
  ratio of the remaining isavuconazole: 33.8%
[12]; from midazolam coadministration in healthy adults, in vivo
  classification as inhibitor of CYP3A4: moderate inhibitor
[12]; from rifampin and ketoconazole coadministration in healthy adults
  classification as substrate of CYP3A4: sensitive substrate
[13]
  correlation of isavuconazole metabolism with CYP1A2 activity: No correlations
[14]
  Oral bioavailability: 98%
  food or pH effect on absorption: no evidence of a clinically relevant food or pH effect
[2]; both, human, plasma, oral, 200 mg
  Cmax: 5200 ng/mL
[2]; isavuconazole 200 mg QD
  mean AUCτ in the presence vs absence of midazolam (in words): comparable
  mean Cmax in the presence vs absence of midazolam (in words): comparable
[15]
  substrate of CYP2B6: not a substrate
[16]; female, human, plasma, oral, 200 mg
  Cmax: 5800 ng/mL
[16]; isavuconazole 200 mg QD + ethinyl estradiol 35 μg/norethindrone 1 mg, day 13
  AUCτ: 81.4 (19.0) h·μg/mL
[16]; isavuconazole 200 mg QD alone, day 12
  AUCτ: 80.8 (18.7) h·μg/mL
[17]
  correlation of isavuconazole metabolism with CYP2A6 activity: No correlations
[18]
  maximum increase in CYP2B6 mRNA: 11.4 fold
  maximum increase in bupropion hydroxylase activity (CYP2B6): 13.4 fold
[19]
  correlation of isavuconazole metabolism with CYP2C19 activity: No correlations
[20]
  correlation of isavuconazole metabolism with CYP2D6 activity: No correlations
[21]
  maximum increase in CYP2C8 mRNA: 4.3 fold
  maximum increase in amodiaquine N-dealkylase activity (CYP2C8): 2.6 fold
[22]
  correlation of isavuconazole metabolism with CYP2C9 activity: No correlations
[23]
  ratio of the remaining isavuconazole: > 98%
[24]
  permeability (in words): highly permeable
[25]
  maximum increase in CYP2C9 mRNA: 3.1 fold
  maximum increase in diclofenac 4'-hydroxylase activity (CYP2C9): none
[26]
  correlation of isavuconazole metabolism with CYP4A11 activity: No correlations
[27]
  ratio of the remaining isavuconazole: > 98%
[28]
  increase in isavuconazole exposure: approximately 2 fold
[29]
  substrate of P-glycoprotein: not a substrate
[30]
  ratio of the remaining isavuconazole: 68.4%
[31]
  solubility (in words): poorly soluble
[6]
  subjects reporting TEAEs: 2 (16.7%) subjects
[32]
  substrate of CYP2C9: not a substrate
[33]
  maximum increase in CYP1A2 mRNA: 5.4 fold
  maximum increase in phenacetin O-dealkylase activity (CYP1A2): 2.8 fold
[34]
  ratio of the remaining isavuconazole: > 98%
[3]
  subjects who experienced TEAEs: 10 n
  subjects with drug-related TEAEs: 5 n
[35]
  correlation of isavuconazole metabolism with CYP2E1 activity: No correlations
[36]; [43]
  decrease in mean AUC0-∞: 97%
  decrease in mean AUClast: 97%
  decrease in mean AUCτ: 90%
  decrease in mean Cmax: 75%
[36]; [44]
  Geometric least-squares mean ratio, AUC0-∞: 3 (2, 3) %
  Geometric least-squares mean ratio, AUClast: 3 (3, 3) %
  Geometric least-squares mean ratio, AUCτ: 10 (9, 11) %
  Geometric least-squares mean ratio, Cmax: 25 (23, 27) %
[36]; male, human, plasma, po
  Tmax: 2 h
[1]
  subjects who experienced TEAEs: 19 n
  subjects with drug-related TEAEs: 17 n

## C#C[C@]1(O)CC[C@H]2[C@@H]3CCc4cc(O)ccc4[C@H]3CC[C@@]21C [Ethinyl Estradiol, ethinyl estradiol]
[16]; [45]
  increase in mean AUC0-∞: 8%
  increase in mean AUClast: 10%
  increase in mean Cmax: 14%
[16]; [46]
  Geometric least-squares mean ratio, AUC0-∞: 108 (103, 113) %
  Geometric least-squares mean ratio, AUClast: 110 (104, 116) %
  Geometric least-squares mean ratio, Cmax: 114 (103, 126) %
[16]; female, human, plasma, po
  half-life: 20.5 h

## CNCC(=O)OCc1cccnc1N(C)C(=O)OC(C)[n+]1cnn(C[C@](O)(c2cc(F)ccc2F)[C@@H](C)c2nc(-c3ccc(C#N)cc3)cs2)c1 (some centres unmarked) [isavuconazonium sulfate]
[37]
  hydrolysis of prodrug by esterases: rapid hydrolysis

## CCC(C)n1ncn(-c2ccc(N3CCN(c4ccc(OCC5COC(Cn6cncn6)(c6ccc(Cl)cc6Cl)O5)cc4)CC3)cc2)c1=O (centres unmarked) [itraconazole]
[4]
  increase in exposure of midazolam on coadministration: up to 10 fold

## C#C[C@]1(O)CC[C@H]2[C@@H]3CCC4=CC(=O)CC[C@@H]4[C@H]3CC[C@@]21C [Norethindrone, norethindrone]
[16]; female, human, plasma, po
  Tmax: 1 h
  half-life: 13.1 h
[16]; [47]
  increase in mean AUC0-∞: 16%
  increase in mean AUClast: 16%
  increase in mean Cmax: 6%
[16]; [48]
  Geometric least-squares mean ratio, AUC0-∞: 116 (109, 123) %
  Geometric least-squares mean ratio, AUClast: 116 (109, 123) %
  Geometric least-squares mean ratio, Cmax: 106 (93, 120) %
